Active and inactive are the calls of the source. The rule behind the calls is not given here. Where a SMILES comes first, the peptide text is derived from it. [ ]: non-standard residue; d: D form. Pro(cis-4-F) = O=C(O)[C@@H]1C[C@H](F)CN1; Hyp = O=C(O)[C@@H]1C[C@@H](O)CN1 A value given as a limit tells only on which side of the number the result lay.

One test deals with T1, Prolyl 4-hydroxylase (Paramecium bursaria Chlorella virus 1, UniProt Q84406).
T1 sequence (Q84406 whole entry): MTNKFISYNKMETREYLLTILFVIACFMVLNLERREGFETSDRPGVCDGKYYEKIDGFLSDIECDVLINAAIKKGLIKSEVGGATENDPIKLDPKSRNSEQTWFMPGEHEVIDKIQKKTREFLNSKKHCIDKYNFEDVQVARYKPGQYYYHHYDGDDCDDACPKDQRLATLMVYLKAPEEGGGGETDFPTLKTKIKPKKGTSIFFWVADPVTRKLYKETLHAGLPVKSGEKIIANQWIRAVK
Description: Inhibition of N-terminal His6-tagged recombinant Paramecium bursaria chlorella virus 1 CPH expressed in Escherichia coli Rosetta 2 (DE3) cells pre-incubated for 5 mins before 2OG as substrate and Fe2 as co-factor addition in presence of L-ascorbate and measured after 5 mins MALDI TOF MS analysis.
In general, IC50 refers to the point on the concentration scale where inhibition reaches its midpoint. Consider `O=C(O)c1ccc(O)c2ncccc12`, for which the IC50 worked out at 47.2 µM.

On to `O=C(O)C[C@H](O)C(=O)O`, for which the IC50 is over 1000 µM.

Regarding `O=C(O)CC[C@@H](O)C(=O)O`, the IC50 was over 500 µM.

On to `O=C(O)CC[C@H](O)C(=O)O`, for which the IC50 is over 500 µM.

Take `CN(C)NC(=O)CCC(=O)O`: the IC50 is over 100 µM.

By Ki is commonly meant the equilibrium dissociation constant of an inhibitor or competing ligand from its target. For `O=C(O)c1ccnc(C(=O)O)c1`, the IC50 amounted to 5.3 µM and the Ki amounted to 3.28 µM.

`O=C(O)CCNc1cc(N2CCc3ccccc3CC2)nc(-c2ccccn2)n1`: the IC50 amounted to 15.9 µM.

Regarding `O=C(O)/C=C(/CC(=O)O)C(=O)O`, the IC50 was over 1000 µM.

As to `CC(C)(C)OC(=O)c1ccc(-n2[nH]cc(-n3ccnn3)c2=O)nc1`, the IC50 came out at 2.5 µM.

Consider `O=C(O)CNC(=O)c1ncc(-c2cccc(Cl)c2)cc1O`, for which the IC50 is under 1 µM and the Ki turned out to be 0.28 µM.

Take `Cc1ccsc1C(NC(=O)c1ccccc1)c1cc(Cl)c2cccnc2c1O` (stereo not given): the IC50 was over 100 µM.

On to `CCCCCCCCOC(=O)c1ccc(O)c2ncccc12`, for which the IC50 is over 100 µM.

Consider `O=C(O)CNC(=O)c1c(O)n(C2CCCCC2)c(=O)n(C2CCCCC2)c1=O`, for which the IC50 worked out at 13.4 µM and the Ki turned out to be 7.65 µM.

With `O=C(O)CNC(=O)c1nc(Cl)c2ccccc2c1O`, the IC50 is 4.5 µM and the Ki came to 0.71 µM.

Take `O=C(O)c1c[nH]c2c(ccc3cccnc32)c1=O`: the IC50 is 15.7 µM.

Take `O=C(O)CC(O)(CC(=O)O)C(=O)O` [CITRIC ACID]: the IC50 was found to be 213 µM.

Consider `O=C(O)/C=C/C(=O)O` [FUMARIC ACID], for which the IC50 is over 1000 µM.

In the case of `N[C@@H](CCC(=O)O)C(=O)O` [GLUTAMIC ACID], the IC50 is over 1000 µM.

Turning to `O=C(O)C[C@H](C(=O)O)[C@@H](O)C(=O)O` [ISOCITRIC ACID], the IC50 worked out at 284 µM.

Consider `O=C(O)CNC(=O)C(=O)O` [N-OXALYLGLYCINE], for which the IC50 was 21.2 µM and the Ki was 48.7 µM.

Take `O=C(O)CC(=O)C(=O)O` [OXALOACETATE]: the IC50 was over 1000 µM.

For the compound `CC(=O)C(=O)O` [PYRUVATE], the IC50 is over 1000 µM.

For the compound `O=C(O)CCC(=O)O` [SUCCINIC ACID], the IC50 is over 1000 µM.

For another test, the target named is T2, Prolyl 3-hydroxylase OGFOD1 (Homo sapiens, UniProt Q8N543).
T2 sequence (Q8N543 whole entry): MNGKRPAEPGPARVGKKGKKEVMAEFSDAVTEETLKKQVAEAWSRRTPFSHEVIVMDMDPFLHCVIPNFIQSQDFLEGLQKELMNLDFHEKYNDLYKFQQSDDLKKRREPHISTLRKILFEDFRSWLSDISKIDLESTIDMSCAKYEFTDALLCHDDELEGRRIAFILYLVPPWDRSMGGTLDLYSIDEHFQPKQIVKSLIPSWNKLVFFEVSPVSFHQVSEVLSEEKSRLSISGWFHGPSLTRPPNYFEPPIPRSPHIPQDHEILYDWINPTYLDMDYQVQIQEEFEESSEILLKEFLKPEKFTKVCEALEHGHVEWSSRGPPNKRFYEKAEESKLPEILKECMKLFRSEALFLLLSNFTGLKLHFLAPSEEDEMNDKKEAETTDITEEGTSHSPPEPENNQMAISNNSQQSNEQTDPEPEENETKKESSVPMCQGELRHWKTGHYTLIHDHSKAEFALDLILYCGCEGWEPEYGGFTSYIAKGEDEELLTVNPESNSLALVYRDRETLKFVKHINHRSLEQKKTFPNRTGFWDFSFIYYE
The test is described as follows: Inhibition of recombinant human OGFOD1 using 2OG as substrate and Fe2 as co-factor assessed as hydroxylation incubated for 15 mins in presence of L-ascorbate by MALDI-TOF MS analysis.
On to `CC(C)(C)OC(=O)c1ccc(-n2[nH]cc(-n3ccnn3)c2=O)nc1`, for which the IC50 came out at 5.1 µM.

As to `O=C(O)CNC(=O)c1c(O)n(C2CCCCC2)c(=O)n(C2CCCCC2)c1=O`, the IC50 worked out at 2.1 µM.

The next test has as its target T3, Prolyl 4-hydroxylase (Paramecium bursaria Chlorella virus 1) (UniProt Q84406).
T3 sequence (whole entry): T1 sequence (Q84406 whole entry)
The test is described as follows: Substrate activity at N-terminal His6-tagged recombinant Paramecium bursaria chlorella virus 1 CPH expressed in Escherichia coli Rosetta 2 (DE3) cells assessed as substrate hydroxylation at 100 uM incubated for 16 hrs in presence of 2OG by MALDI TOF MS analysis.
Take `C[C@H](NC(=O)[C@H](CCCCN)NC(=O)[C@@H]1C[C@@H](O)CN1C(=O)[C@H](C)NC(=O)[C@@H]1CCCN1)C(=O)N[C@@H](C)C(=O)N1CCC[C@H]1C(=O)N[C@@H](CCCCN)C(=O)O` (H-PA[Hyp]KAAPK-OH): the result was inactive.

On to `C[C@H](NC(=O)[C@H](CS)NC(=O)[C@H](CCCCN)NC(=O)[C@@H]1C[C@@H](O)CN1C(=O)[C@H](C)NC(=O)[C@@H]1CCCN1)C(=O)N1CCC[C@H]1C(=O)N[C@@H](CCCCN)C(=O)O` (H-PA[Hyp]KCAPK-OH), for which the outcome was inactive.

Take `C[C@H](NC(=O)[C@H](CC(=O)O)NC(=O)[C@H](CCCCN)NC(=O)[C@@H]1C[C@@H](O)CN1C(=O)[C@H](C)NC(=O)[C@@H]1CCCN1)C(=O)N1CCC[C@H]1C(=O)N[C@@H](CCCCN)C(=O)O` (H-PA[Hyp]KDAPK-OH): the result was inactive.

Turning to `C[C@H](NC(=O)[C@H](CCC(=O)O)NC(=O)[C@H](CCCCN)NC(=O)[C@@H]1C[C@@H](O)CN1C(=O)[C@H](C)NC(=O)[C@@H]1CCCN1)C(=O)N1CCC[C@H]1C(=O)N[C@@H](CCCCN)C(=O)O` (H-PA[Hyp]KEAPK-OH), the outcome was inactive.

For the compound `C[C@H](NC(=O)[C@H](Cc1ccccc1)NC(=O)[C@H](CCCCN)NC(=O)[C@@H]1C[C@@H](O)CN1C(=O)[C@H](C)NC(=O)[C@@H]1CCCN1)C(=O)N1CCC[C@H]1C(=O)N[C@@H](CCCCN)C(=O)O` (H-PA[Hyp]KFAPK-OH), the outcome was inactive.

As for `C[C@H](NC(=O)CNC(=O)[C@H](CCCCN)NC(=O)[C@@H]1C[C@@H](O)CN1C(=O)[C@H](C)NC(=O)[C@@H]1CCCN1)C(=O)N1CCC[C@H]1C(=O)N[C@@H](CCCCN)C(=O)O` (H-PA[Hyp]KGAPK-OH), the outcome was inactive.

As for `C[C@H](NC(=O)[C@H](Cc1cnc[nH]1)NC(=O)[C@H](CCCCN)NC(=O)[C@@H]1C[C@@H](O)CN1C(=O)[C@H](C)NC(=O)[C@@H]1CCCN1)C(=O)N1CCC[C@H]1C(=O)N[C@@H](CCCCN)C(=O)O` (H-PA[Hyp]KHAPK-OH), the outcome was inactive.

Take `CC[C@H](C)[C@H](NC(=O)[C@H](CCCCN)NC(=O)[C@@H]1C[C@@H](O)CN1C(=O)[C@H](C)NC(=O)[C@@H]1CCCN1)C(=O)N[C@@H](C)C(=O)N1CCC[C@H]1C(=O)N[C@@H](CCCCN)C(=O)O` (H-PA[Hyp]KIAPK-OH): the outcome was inactive.

Take `C[C@H](NC(=O)[C@H](CCCCN)NC(=O)[C@H](CCCCN)NC(=O)[C@@H]1C[C@@H](O)CN1C(=O)[C@H](C)NC(=O)[C@@H]1CCCN1)C(=O)N1CCC[C@H]1C(=O)N[C@@H](CCCCN)C(=O)O` (H-PA[Hyp]KKAPK-OH): the result was inactive.

As to `CC(C)C[C@H](NC(=O)[C@H](CCCCN)NC(=O)[C@@H]1C[C@@H](O)CN1C(=O)[C@H](C)NC(=O)[C@@H]1CCCN1)C(=O)N[C@@H](C)C(=O)N1CCC[C@H]1C(=O)N[C@@H](CCCCN)C(=O)O` (H-PA[Hyp]KLAPK-OH), the result was inactive.

As to `CSCC[C@H](NC(=O)[C@H](CCCCN)NC(=O)[C@@H]1C[C@@H](O)CN1C(=O)[C@H](C)NC(=O)[C@@H]1CCCN1)C(=O)N[C@@H](C)C(=O)N1CCC[C@H]1C(=O)N[C@@H](CCCCN)C(=O)O` (H-PA[Hyp]KMAPK-OH), the result was inactive.

Regarding `C[C@H](NC(=O)[C@H](CC(N)=O)NC(=O)[C@H](CCCCN)NC(=O)[C@@H]1C[C@@H](O)CN1C(=O)[C@H](C)NC(=O)[C@@H]1CCCN1)C(=O)N1CCC[C@H]1C(=O)N[C@@H](CCCCN)C(=O)O` (H-PA[Hyp]KNAPK-OH), the result was inactive.

For `C[C@H](NC(=O)[C@H](CCC(N)=O)NC(=O)[C@H](CCCCN)NC(=O)[C@@H]1C[C@@H](O)CN1C(=O)[C@H](C)NC(=O)[C@@H]1CCCN1)C(=O)N1CCC[C@H]1C(=O)N[C@@H](CCCCN)C(=O)O` (H-PA[Hyp]KQAPK-OH), the result was inactive.

Take `C[C@H](NC(=O)[C@H](CCCNC(=N)N)NC(=O)[C@H](CCCCN)NC(=O)[C@@H]1C[C@@H](O)CN1C(=O)[C@H](C)NC(=O)[C@@H]1CCCN1)C(=O)N1CCC[C@H]1C(=O)N[C@@H](CCCCN)C(=O)O` (H-PA[Hyp]KRAPK-OH): the result was inactive.

In the case of `C[C@H](NC(=O)[C@H](CO)NC(=O)[C@H](CCCCN)NC(=O)[C@@H]1C[C@@H](O)CN1C(=O)[C@H](C)NC(=O)[C@@H]1CCCN1)C(=O)N1CCC[C@H]1C(=O)N[C@@H](CCCCN)C(=O)O` (H-PA[Hyp]KSAPK-OH), the result was inactive.

As to `C[C@H](NC(=O)[C@@H]1CCCN1)C(=O)N1C[C@H](O)C[C@H]1C(=O)N[C@@H](CCCCN)C(=O)N[C@H](C(=O)N[C@@H](C)C(=O)N1CCC[C@H]1C(=O)N[C@@H](CCCCN)C(=O)O)[C@@H](C)O` (H-PA[Hyp]KTAPK-OH), the outcome was inactive.

Regarding `CC(C)[C@H](NC(=O)[C@H](CCCCN)NC(=O)[C@@H]1C[C@@H](O)CN1C(=O)[C@H](C)NC(=O)[C@@H]1CCCN1)C(=O)N[C@@H](C)C(=O)N1CCC[C@H]1C(=O)N[C@@H](CCCCN)C(=O)O` (H-PA[Hyp]KVAPK-OH), the result was inactive.

Regarding `C[C@H](NC(=O)[C@H](Cc1c[nH]c2ccccc12)NC(=O)[C@H](CCCCN)NC(=O)[C@@H]1C[C@@H](O)CN1C(=O)[C@H](C)NC(=O)[C@@H]1CCCN1)C(=O)N1CCC[C@H]1C(=O)N[C@@H](CCCCN)C(=O)O` (H-PA[Hyp]KWAPK-OH), the result was inactive.

Turning to `C[C@H](NC(=O)[C@H](Cc1ccc(O)cc1)NC(=O)[C@H](CCCCN)NC(=O)[C@@H]1C[C@@H](O)CN1C(=O)[C@H](C)NC(=O)[C@@H]1CCCN1)C(=O)N1CCC[C@H]1C(=O)N[C@@H](CCCCN)C(=O)O` (H-PA[Hyp]KYAPK-OH), the outcome was inactive.

Consider `C[C@H](NC(=O)[C@@H]1CCCN1)C(=O)N1C[C@H](O)C[C@H]1C(=O)N[C@@H](CCCCN)C(=O)N1C[C@@H](F)C[C@H]1C(=O)N[C@@H](C)C(=O)N1CCC[C@H]1C(=O)N[C@@H](CCCCN)C(=O)O` (H-PA[Hyp]K[Pro(cis-4-F)]APK-OH), for which the outcome was Active.

The values are drawn from ChEMBL document CHEMBL4340506, “Inhibition of a viral prolyl hydroxylase” (Bioorg Med Chem, 2019).
